Experimental data from publication PMC5218480 (PLoS ONE, 2017).

Tested on: MV-4-11 cells
Assay: Gene expression microarray analysis (Affymetrix PrimeView) and GSEA
Assay type: cell-based, human
Set-up: RFU PODN (11730768_x_at) / Fold change /veh PODN (11730768_x_at) / RFU LINC00158 (11744669_a_at) / Fold change /veh LINC00158 (11744669_a_at) / RFU DUSP10 (11751237_a_at) / Fold change /veh DUSP10 (11751237_a_at) / RFU ID3 (11757404_x_at) / Fold change /veh ID3 (11757404_x_at) / RFU PLEKHG5 (11737974_s_at) / Fold change /veh PLEKHG5 (11737974_s_at) / RFU LRRC4B (11730491_at) / Fold change /veh LRRC4B (11730491_at) / RFU GIMAP4 (11747438_a_at) / Fold change /veh GIMAP4 (11747438_a_at) / RFU KRT8 (11758183_x_at) / Fold change /veh KRT8 (11758183_x_at) / RFU CNN1 (11734310_a_at) / Fold change /veh CNN1 (11734310_a_at) / RFU VPS37D (11726825_at) / Fold change /veh VPS37D (11726825_at) / RFU C10orf10 (11716522_x_at) / Fold change /veh C10orf10 (11716522_x_at) / RFU KIR2DL2 /// KIR2DL4 /// KIR2DL5A /// KIR2DL5B /// KIR2DS1 /// KIR2DS2 /// KIR2DS3 /// KIR2DS4 /// KIR3DL3 /// KIR3DL3 /// KIR3DS1 (11738374_at) / Fold change /veh KIR2DL2 /// KIR2DL4 /// KIR2DL5A /// KIR2DL5B /// KIR2DS1 /// KIR2DS2 /// KIR2DS3 /// KIR2DS4 /// KIR3DL3 /// KIR3DL3 /// KIR3DS1 (11738374_at) / RFU C1QL1 (11718748_at) / Fold change /veh C1QL1 (11718748_at) / RFU TMPRSS4 (11747572_a_at) / Fold change /veh TMPRSS4 (11747572_a_at) / RFU HAMP (11756126_x_at) / Fold change /veh HAMP (11756126_x_at) / RFU RNFT2 (11725882_a_at) / Fold change /veh RNFT2 (11725882_a_at) / RFU NR4A2 (11747474_a_at) / Fold change /veh NR4A2 (11747474_a_at) / RFU ABCC12 (11746883_a_at) / Fold change /veh ABCC12 (11746883_a_at) / RFU TMEM136 (11760407_x_at) / Fold change /veh TMEM136 (11760407_x_at) / RFU CLDN22 /// WWC2 (11732394_at) / Fold change /veh CLDN22 /// WWC2 (11732394_at) / RFU HLA-DPB1 (11760878_x_at) / Fold change /veh HLA-DPB1 (11760878_x_at) / RFU SPINT1 (11716480_a_at) / Fold change /veh SPINT1 (11716480_a_at) / RFU GAP43 (11754022_s_at) / Fold change /veh GAP43 (11754022_s_at) / RFU A4GNT (11735810_at) / Fold change /veh A4GNT (11735810_at) / RFU PRB3 (11715151_x_at) / Fold change /veh PRB3 (11715151_x_at) / RFU TUBB4B (11761932_at) / Fold change /veh TUBB4B (11761932_at) / RFU CAPN14 (11732068_a_at) / Fold change /veh CAPN14 (11732068_a_at) / RFU TMCC2 (11721928_a_at) / Fold change /veh TMCC2 (11721928_a_at) / RFU IRGQ (11745062_a_at) / Fold change /veh IRGQ (11745062_a_at) / RFU FAM174B (11720279_a_at) / Fold change /veh FAM174B (11720279_a_at) / RFU TMPRSS4 (11748680_a_at) / Fold change /veh TMPRSS4 (11748680_a_at) / RFU FAM212B (11763350_a_at) / Fold change /veh FAM212B (11763350_a_at) / RFU PLEKHG5 (11743358_a_at) / Fold change /veh PLEKHG5 (11743358_a_at) / RFU ZSCAN30 (11745921_a_at) / Fold change /veh ZSCAN30 (11745921_a_at) / RFU CMKLR1 (11741424_a_at) / Fold change /veh CMKLR1 (11741424_a_at) / RFU LOC101060620 /// MAPK8IP1 (11723275_at) / Fold change /veh LOC101060620 /// MAPK8IP1 (11723275_at) / RFU SPTSSB (11747773_x_at) / Fold change /veh SPTSSB (11747773_x_at) / RFU PRSS12 (11739890_at) / Fold change /veh PRSS12 (11739890_at) / RFU BIN1 (11741810_x_at) / Fold change /veh BIN1 (11741810_x_at) / RFU WNT11 (11732464_a_at) / Fold change /veh WNT11 (11732464_a_at) / RFU C10orf10 (11716521_a_at) / Fold change /veh C10orf10 (11716521_a_at) / RFU C5orf56 (11738089_at) / Fold change /veh C5orf56 (11738089_at) / RFU CYB561 (11721691_x_at) / Fold change /veh CYB561 (11721691_x_at) / RFU ANKRD19P (11752326_a_at) / Fold change /veh ANKRD19P (11752326_a_at) / RFU OR2T12 /// OR2T33 /// OR2T8 (11738714_s_at) / Fold change /veh OR2T12 /// OR2T33 /// OR2T8 (11738714_s_at) / RFU VCAN (11748164_a_at) / Fold change /veh VCAN (11748164_a_at) / RFU JSRP1 (11732532_at) / Fold change /veh JSRP1 (11732532_at) / RFU KRTAP10-11 (11738290_x_at) / Fold change /veh KRTAP10-11 (11738290_x_at) / RFU MYO3A (11730013_a_at) / Fold change /veh MYO3A (11730013_a_at) / RFU EBF3 (11725865_a_at) / Fold change /veh EBF3 (11725865_a_at) / RFU CAMK2N1 (11719241_x_at) / Fold change /veh CAMK2N1 (11719241_x_at) / RFU C5orf56 (11738088_a_at) / Fold change /veh C5orf56 (11738088_a_at) / RFU OLFML3 (11715873_a_at) / Fold change /veh OLFML3 (11715873_a_at) / RFU LOC100653217 /// NTM (11731650_a_at) / Fold change /veh LOC100653217 /// NTM (11731650_a_at) / RFU MAPK11 (11762145_a_at) / Fold change /veh MAPK11 (11762145_a_at) / RFU FIZ1 (11724087_x_at) / Fold change /veh FIZ1 (11724087_x_at) / RFU OASL (11726364_x_at) / Fold change /veh OASL (11726364_x_at) / RFU SOX15 (11748057_x_at) / Fold change /veh SOX15 (11748057_x_at) / RFU CD79A (11719716_a_at) / Fold change /veh CD79A (11719716_a_at) / RFU HIST1H1D (11736915_at) / Fold change /veh HIST1H1D (11736915_at) / RFU CASKIN2 (11723855_a_at) / Fold change /veh CASKIN2 (11723855_a_at) / RFU LOC730098 (11760151_x_at) / Fold change /veh LOC730098 (11760151_x_at) / RFU OR4N2 (11742367_at) / Fold change /veh OR4N2 (11742367_at) / RFU PRRT2 (11749266_a_at) / Fold change /veh PRRT2 (11749266_a_at) / RFU SNX32 (11753110_a_at) / Fold change /veh SNX32 (11753110_a_at) / RFU CDHR5 (11726645_a_at) / Fold change /veh CDHR5 (11726645_a_at) / RFU RCAN1 (11760418_a_at) / Fold change /veh RCAN1 (11760418_a_at) / RFU FAM167A (11723789_a_at) / Fold change /veh FAM167A (11723789_a_at) / RFU FAM26E (11764081_at) / Fold change /veh FAM26E (11764081_at) / RFU ISYNA1 (11749810_s_at) / Fold change /veh ISYNA1 (11749810_s_at) / RFU ACY1 (11761880_at) / Fold change /veh ACY1 (11761880_at) / RFU 11764098_at / Fold change /veh 11764098_at / RFU SAMD14 (11745864_x_at) / Fold change /veh SAMD14 (11745864_x_at) / RFU NPB (11741838_a_at) / Fold change /veh NPB (11741838_a_at) / RFU TMPRSS6 (11731388_a_at) / Fold change /veh TMPRSS6 (11731388_a_at) / RFU KRTAP10-2 (11738614_at) / Fold change /veh KRTAP10-2 (11738614_at) / RFU ARHGAP8 /// PRR5-ARHGAP8 (11727945_x_at) / Fold change /veh ARHGAP8 /// PRR5-ARHGAP8 (11727945_x_at) / RFU KRTAP5-7 /// NADSYN1 (11734609_at) / Fold change /veh KRTAP5-7 /// NADSYN1 (11734609_at) / RFU RASL12 (11751679_a_at) / Fold change /veh RASL12 (11751679_a_at) / RFU CDKN2B (11736163_a_at) / Fold change /veh CDKN2B (11736163_a_at) / RFU PRF1 (11729649_at) / Fold change /veh PRF1 (11729649_at) / RFU, ZNF638 /// ZNF638-IT1 / Fold change vs veh, ZNF638 /// ZNF638-IT1 / RFU, PANK3 / Fold change vs veh, PANK3 / RFU, SH3YL1 / Fold change vs veh, SH3YL1 / RFU, ZEB2 / Fold change vs veh, ZEB2 / RFU, NRIP1 / Fold change vs veh, NRIP1 / RFU, PTTG1IP / Fold change vs veh, PTTG1IP / RFU, CAPN2 / Fold change vs veh, CAPN2 / RFU, MED14 / Fold change vs veh, MED14 / RFU, SNORA58 / Fold change vs veh, SNORA58 / RFU, C1orf63 / Fold change vs veh, C1orf63 / RFU, LRRFIP1 / Fold change vs veh, LRRFIP1 / RFU, NDUFAF7 / Fold change vs veh, NDUFAF7 / RFU, SLC12A2 / Fold change vs veh, SLC12A2 / RFU, IBTK / Fold change vs veh, IBTK / RFU, ESF1 / Fold change vs veh, ESF1 / Fold change vs veh, TMEM50B / RFU, TAOK1 / Fold change vs veh, TAOK1 / RFU, ACBD3 / Fold change vs veh, ACBD3 / RFU, TMA16 / Fold change vs veh, TMA16 / RFU, RWDD3 / Fold change vs veh, RWDD3 / RFU, BCAT1 / Fold change vs veh, BCAT1 / RFU, EDEM3 / Fold change vs veh, EDEM3 / RFU, TMEM33 / Fold change vs veh, TMEM33 / RFU, WDR75 / Fold change vs veh, WDR75 / RFU, AHCTF1 / Fold change vs veh, AHCTF1 / RFU, TFRC / Fold change vs veh, TFRC / RFU, ZDHHC17 / Fold change vs veh, ZDHHC17 / RFU, NOM1 / Fold change vs veh, NOM1 / RFU, ARL8B / Fold change vs veh, ARL8B / RFU, ZBTB11 / Fold change vs veh, ZBTB11 / RFU, TAMM41 / Fold change vs veh, TAMM41 / RFU, KIAA1704 /// LOC100996395 / Fold change vs veh, KIAA1704 /// LOC100996395 / RFU, ING1 / Fold change vs veh, ING1 / RFU, TRMT61B / Fold change vs veh, TRMT61B / RFU, FUBP3 / Fold change vs veh, FUBP3 / RFU, TP53 / Fold change vs veh, TP53 / RFU, TNKS2 / Fold change vs veh, TNKS2 / RFU, ZFP14 / Fold change vs veh, ZFP14 / RFU, ACTR2 / Fold change vs veh, ACTR2 / RFU, PPP3R1 / Fold change vs veh, PPP3R1 / RFU, PIK3R1 / Fold change vs veh, PIK3R1 / RFU, HNRNPA1 / Fold change vs veh, HNRNPA1 / RFU, RNF170 / Fold change vs veh, RNF170 / RFU, ZNF28 / Fold change vs veh, ZNF28 / RFU, RNGTT / Fold change vs veh, RNGTT / RFU, OGT / Fold change vs veh, OGT / RFU, BRD1 / Fold change vs veh, BRD1 / RFU, MARS / Fold change vs veh, MARS / RFU, ZNF655 / Fold change vs veh, ZNF655 / RFU, FAHD1 / Fold change vs veh, FAHD1 / RFU, BDP1 / Fold change vs veh, BDP1 / RFU, LRRCC1 / Fold change vs veh, LRRCC1 / RFU, ARID1A / Fold change vs veh, ARID1A / RFU, ZNF146 / Fold change vs veh, ZNF146 / RFU, ZNF330 / Fold change vs veh, ZNF330 / RFU, GPN3 / Fold change vs veh, GPN3 / RFU, C9orf123 / Fold change vs veh, C9orf123 / RFU, N4BP2L2 / Fold change vs veh, N4BP2L2 / RFU, ARFIP1 / Fold change vs veh, ARFIP1 / RFU, FAM179B / Fold change vs veh, FAM179B / RFU, BCL10 / Fold change vs veh, BCL10 / RFU, UHRF1BP1L / Fold change vs veh, UHRF1BP1L / RFU, BET1 / Fold change vs veh, BET1 / RFU, CNOT2 / Fold change vs veh, CNOT2 / RFU, ZNF268 / Fold change vs veh, ZNF268 / Fold change vs veh, ZNF507 / RFU, DGCR2 / Fold change vs veh, DGCR2 / RFU, WDSUB1 / Fold change vs veh, WDSUB1 / Fold change vs veh, HSP90B1 /// MIR3652 / RFU, ADSS / Fold change vs veh, ADSS / RFU, GK / Fold change vs veh, GK / RFU, ZNF148 / Fold change vs veh, ZNF148 / RFU, TAF9 / Fold change vs veh, TAF9 / RFU, SLC1A5 / Fold change vs veh, SLC1A5 / RFU, SLMO2 / Fold change vs veh, SLMO2 / RFU, ABCC4 / Fold change vs veh, ABCC4 / RFU, LOC101060439 /// RAP1B / Fold change vs veh, LOC101060439 /// RAP1B / RFU, RFX7 / Fold change vs veh, RFX7 / RFU, GTPBP10 / Fold change vs veh, GTPBP10 / RFU, CNEP1R1 / Fold change vs veh, CNEP1R1 / RFU, BIVM-ERCC5 /// ERCC5 / Fold change vs veh, BIVM-ERCC5 /// ERCC5 / RFU, ILF3 / Fold change vs veh, ILF3 / RFU 11762660_at / Fold change /veh 11762660_at / RFU VCAN (11757783_s_at) / Fold change /veh VCAN (11757783_s_at) / RFU DDX43 (11728927_at) / Fold change /veh DDX43 (11728927_at) / RFU KRT8 (11758188_x_at) / Fold change /veh KRT8 (11758188_x_at) / RFU NKD1 (11759106_at) / Fold change /veh NKD1 (11759106_at) / RFU SRD5A1 (11742802_a_at) / Fold change /veh SRD5A1 (11742802_a_at) / RFU TPSAB1 /// TPSB2 (11721975_s_at) / Fold change /veh TPSAB1 /// TPSB2 (11721975_s_at) / RFU GSTM3 (11746129_a_at) / Fold change /veh GSTM3 (11746129_a_at) / RFU IL23R (11737362_x_at) / Fold change /veh IL23R (11737362_x_at) / RFU TMEM51 (11727254_a_at) / Fold change /veh TMEM51 (11727254_a_at) / RFU PIWIL2 (11732686_x_at) / Fold change /veh PIWIL2 (11732686_x_at) / RFU ORM1 (11744905_x_at) / Fold change /veh ORM1 (11744905_x_at) / RFU CCDC152 (11743942_at) / Fold change /veh CCDC152 (11743942_at) / RFU ECM1 (11717891_a_at) / Fold change /veh ECM1 (11717891_a_at) / RFU IL23R (11748794_a_at) / Fold change /veh IL23R (11748794_a_at) / RFU TNFAIP8L3 (11732012_x_at) / Fold change /veh TNFAIP8L3 (11732012_x_at) / RFU MBOAT4 (11741988_at) / Fold change /veh MBOAT4 (11741988_at) / RFU 11764193_at / Fold change /veh 11764193_at / RFU TMEM53 (11763286_at) / Fold change /veh TMEM53 (11763286_at) / RFU MAGEB2 (11727129_at) / Fold change /veh MAGEB2 (11727129_at) / RFU TMEM200A (11744735_a_at) / Fold change /veh TMEM200A (11744735_a_at) / RFU CCDC152 (11751479_a_at) / Fold change /veh CCDC152 (11751479_a_at) / RFU FAM211A (11726209_a_at) / Fold change /veh FAM211A (11726209_a_at) / RFU RGS16 (11746705_a_at) / Fold change /veh RGS16 (11746705_a_at) / RFU VCAN (11755009_s_at) / Fold change /veh VCAN (11755009_s_at) / RFU RHOB (11743442_s_at) / Fold change /veh RHOB (11743442_s_at) / RFU RGS16 (11720943_a_at) / Fold change /veh RGS16 (11720943_a_at) / RFU RGS16 (11720944_at) / Fold change /veh RGS16 (11720944_at) / RFU, VPS4B / Fold change vs veh, VPS4B / RFU, CREB1 / Fold change vs veh, CREB1 / RFU, DNAJC13 / Fold change vs veh, DNAJC13 / RFU, GNAQ / Fold change vs veh, GNAQ / RFU, CDK5R1 / Fold change vs veh, CDK5R1 / RFU, ZRANB3 / Fold change vs veh, ZRANB3 / RFU, CUL4A / Fold change vs veh, CUL4A / RFU, CCNY / Fold change vs veh, CCNY / RFU, UFL1 / Fold change vs veh, UFL1 / RFU, COG3 / Fold change vs veh, COG3 / RFU, DIAPH2 / Fold change vs veh, DIAPH2 / RFU, SKA2 / Fold change vs veh, SKA2 / RFU, AFF3 / Fold change vs veh, AFF3 / RFU, LMF1 / Fold change vs veh, LMF1 / RFU, IPO11 / Fold change vs veh, IPO11 / RFU, DFFB / Fold change vs veh, DFFB / RFU, FOXP1 / Fold change vs veh, FOXP1 / RFU, CARD8 / Fold change vs veh, CARD8 / RFU, STRN3 / Fold change vs veh, STRN3 / RFU, ADK / Fold change vs veh, ADK / RFU, RASSF2 / Fold change vs veh, RASSF2 / RFU, WIPF1 / Fold change vs veh, WIPF1 / RFU, LARP1B / Fold change vs veh, LARP1B / RFU, RASA1 / Fold change vs veh, RASA1 / RFU, RB1 / Fold change vs veh, RB1 / RFU, PPFIA1 / Fold change vs veh, PPFIA1 / RFU, MAT2A / Fold change vs veh, MAT2A / RFU, CCT5 / Fold change vs veh, CCT5 / RFU, WDR92 / Fold change vs veh, WDR92 / RFU, CUX1 / Fold change vs veh, CUX1 / RFU, TTC7A / Fold change vs veh, TTC7A / RFU, TMEM135 / Fold change vs veh, TMEM135 / RFU, DEPTOR / Fold change vs veh, DEPTOR / RFU, CPM / Fold change vs veh, CPM / RFU, DNAJB6 / Fold change vs veh, DNAJB6 / RFU, CACNA2D3 / Fold change vs veh, CACNA2D3 / RFU, DTX4 / Fold change vs veh, DTX4 / RFU, TFCP2 / Fold change vs veh, TFCP2 / RFU, GMCL1 /// GMCL1P1 / Fold change vs veh, GMCL1 /// GMCL1P1 / RFU, AEBP2 / Fold change vs veh, AEBP2 / RFU, SNHG1 /// SNORD22 /// SNORD25 /// SNORD26 /// SNORD27 /// SNORD28 /// SNORD29 /// SNORD31 / Fold change vs veh, SNHG1 /// SNORD22 /// SNORD25 /// SNORD26 /// SNORD27 /// SNORD28 /// SNORD29 /// SNORD31 / Fold change (Aza/veh), C12orf56 (ProbeSet 11735607_a_at) / Fold change (ACY-1035/veh), C12orf56 (ProbeSet 11735607_a_at) / Fold change (Aza/veh), FGFR1OP (ProbeSet 11751329_s_at) / Fold change (ACY-1035/veh), FGFR1OP (ProbeSet 11751329_s_at) / Fold change (Aza/veh), VPS36 (ProbeSet 11739960_a_at) / Fold change (ACY-1035/veh), VPS36 (ProbeSet 11739960_a_at) / RFU SYPL1 (11715823_x_at) / Fold change /veh SYPL1 (11715823_x_at) / RFU IGFBP7 (11715501_s_at) / Fold change /veh IGFBP7 (11715501_s_at) / RFU REEP3 (11722064_at) / Fold change /veh REEP3 (11722064_at) / RFU IGLL1 (11728026_x_at) / Fold change /veh IGLL1 (11728026_x_at): dose or concentration left out as unconfirmed
Conditions: gene C12orf56; Azacitidine vs DMSO; LIST F

## Nc1ncn([C@@H]2O[C@H](CO)[C@@H](O)[C@H]2O)c(=O)n1 [azacitidine]
  Fold change (Aza/veh), C12orf56 (ProbeSet 11735607_a_at): 1.01
